Measured values as given in US4943566A, “Novel 17-aryl-steroids” (Roussel Uclafi, priority 1987, dated 1990).

Key:
[1] = tested on: mammary Tumoral cells MCF-7; experiment: Anti-proliferative activity against the increase of mammary tumoral cells MCF-7 (ADN by DABA fluorimetry); format: cell-based; conditions: Homo sapiens, MCF7, 144 h; MCF-7 cells, SVF medium, 6 days, ADN content; read-out: CI50 in nM (concentration which inhibits by 50% the increase in the MCF 7 cells)
Method: The cell culture line MCF-7 was maintained in culture in SVF (1) medium at 37° C. in a humid atmosphere containing 5% CO2. The cells at subconfluence were collected by trypsination (0.05% trypsine, 0.02% EDTA) then rinsed by gentle centrifiguation. A sample of the cells in suspension was counted by the Malassez cell. To study the increase, the cells resuspended in SVF medium were innoculated at a rate of 30,000 cells per well in a multiwell plate (24 wells per 2.5 cm^2) 24 hours after the innoculation (Day 0), the test compound was added to the medium in an ethanolic solution (final ethanol concentration is 0.1%) a concentration of 10^-6 M. The control wells received the same concentration of ethanol. The mediums were totally renewed at 48 hours. At the end of the experiment (Day 6), the medium was aspirated and the cells were immediately fixed by 150 μl of methanol after a dose of ADN. The anti-proliferative activity of the products was determined by the capacity to inhibit ADN increase.
ADN is dosed by a fluorimetric method using DABA (3,5-diamino benzoic acid). 150 μl of DABA was added to each well and the plates were incubated for 45 minutes at 56° C. and then 1.5 ml of 1N hydrochloric acid was added. The fluoresence was measured with a fluorimeter (excitement length 400 nM-length of emission wave 500 nM). The amount of ADN per well was evaluated with respect to a standard scale obtained by treating under the same conditions an ADN standard of the calf thymus. The concentration in nM which inhibit by 50% the increase in the MCF 7 cells or CI50 was determined in the same manner with the results of the following Table.
The medium for culture of calf fetal serum (SVF) was prepared as follows: MEM medium (minimal essential medium) to which was added non-essential amino acids (GIBCO), peni-strepto (penicillin 100 U/ml, streptomycine 0.1 mg/ml), 0.1% fungizone, 50 ng/ml of insulin and a 10% final concentration of calf fetal serum free of endrogenic steroids.

[2] = molecular target: T1, glucocorticoid receptor, rat thymus (Rattus norvegicus, UniProt P06536); experiment: Relative binding affinity (ARL), glucocorticoid receptor of rat thymus; conditions: rat thymus cytosol, tritiated dexamethasone, cold reference dexamethasone; for relative affinity of the bond (ARL), Glucocorticoid, 2H: incubation 2H at 0° C.; for relative affinity of the bond (ARL), Glucocorticoid, 24H: incubation 24H at 0° C.
T1 construct: The second test was a glucocrticoid receptor test on rat thymus; from tissue; host or cells: thymus of adrenalectomized male Sprague Dawley EOPS rats, 105,000 g supernatant (cytosol)
T1 sequence (P06536 1-795): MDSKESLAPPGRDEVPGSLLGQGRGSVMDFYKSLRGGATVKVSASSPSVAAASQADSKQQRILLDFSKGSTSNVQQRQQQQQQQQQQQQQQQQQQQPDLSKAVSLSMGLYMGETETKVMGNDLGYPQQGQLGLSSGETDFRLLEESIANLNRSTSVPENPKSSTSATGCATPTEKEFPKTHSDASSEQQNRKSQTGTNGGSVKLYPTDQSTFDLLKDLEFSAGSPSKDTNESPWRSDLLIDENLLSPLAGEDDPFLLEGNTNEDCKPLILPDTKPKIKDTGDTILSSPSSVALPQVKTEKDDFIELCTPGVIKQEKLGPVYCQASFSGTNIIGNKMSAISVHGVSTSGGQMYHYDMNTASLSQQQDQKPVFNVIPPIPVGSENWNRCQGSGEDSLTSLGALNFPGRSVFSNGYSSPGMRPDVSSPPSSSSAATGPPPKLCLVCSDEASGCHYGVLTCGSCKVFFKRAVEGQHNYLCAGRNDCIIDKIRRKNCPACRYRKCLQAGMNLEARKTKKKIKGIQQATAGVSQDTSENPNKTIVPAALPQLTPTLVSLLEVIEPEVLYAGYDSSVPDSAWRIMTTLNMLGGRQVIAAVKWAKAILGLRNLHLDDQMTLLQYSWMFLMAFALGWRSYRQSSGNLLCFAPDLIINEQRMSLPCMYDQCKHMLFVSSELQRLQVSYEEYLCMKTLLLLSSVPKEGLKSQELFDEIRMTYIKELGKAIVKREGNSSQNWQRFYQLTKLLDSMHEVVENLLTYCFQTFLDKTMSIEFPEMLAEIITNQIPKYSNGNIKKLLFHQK
Method: The second test was a glucocrticoid receptor test on rat thymus in which male rats of the Sprague Dawley EOPS strain weighing 160 to 200 g were surrenalectomized. 4 to 8 days after this ablation, the animals were killed and the thymus was removed and homogenized at 0° C. in a buffered TS solution. (Tris 10 mM, 0.25M saccharose, 2 mM dithiothreitol, HCl pH 7.4) with a Potter tetrafluoroethylene-glass (1 g of tissue per 10 ml/TS). The homogenate was ultracentrifuged at 105,000 for 90 minutes at 0° C. and the surnageant samples were incubated at 0° C. for a time t with a constant concentration T of tritiated dexamethasone in the presence of increasing concentrations (0-2500×10^-9 M) or cold dexamethasone or cold test compound. The concentration B of bound tritiated dexamethasone was measured for each incubate by carbon-dextran absorption technique.
(§1) The relative affinity of the bond (ARL) was calculated in the same for the receptors. One traced the following 2 curves: the percentage of bond tritiated hormone B/T as a logarithmic function of the concentration of the cold reference hormone and B/T as a logarithmic function of the concentration of the cold test compound. Using the equation [formula] B/T max.=% of bound tritiated hormone for one incubation of tritiated hormone at concentration (T)
(§2) B/T min.=% of bound tritiated hormone for one incubation of tritiated hormone at a concentration T in the presence of a great excess of cold hormone (2500×10^-9 M).
(§3) The intersections of I50 lines and the curves permit an evaluation of the hormone concentration of the cold reference (CH) and the cold test compound (CX) which inhibited by 50% the bounding of tritiated hormone to the receptor. The ARL of the test compound was determined by the equation. [formula] and the following results were obtained.

[3] = molecular target: T2, progesterone receptors of rabbit uterus (Oryctolagus cuniculus, UniProt P06186); experiment: Relative binding affinity (ARL), progesterone receptors of rabbit uterus; conditions: rabbit uterus cytosol, tritiated 17,21-dimethyl-19-nor-Δ4,9-pregnadiene-3,20-dione, cold reference hormone progesterone; for relative affinity of the bond (ARL), Progestogen, 2H: incubation 2H at 0° C.; for relative affinity of the bond (ARL), Progestogen, 24H: incubation 24H at 0° C.
T2 construct: The first test was on the progesterone receptors of rabbit uterus; from tissue; host or cells: uterus of estradiol-treated immature rabbits, 105,000 g supernatant (cytosol)
T2 sequence (P06186 1-930): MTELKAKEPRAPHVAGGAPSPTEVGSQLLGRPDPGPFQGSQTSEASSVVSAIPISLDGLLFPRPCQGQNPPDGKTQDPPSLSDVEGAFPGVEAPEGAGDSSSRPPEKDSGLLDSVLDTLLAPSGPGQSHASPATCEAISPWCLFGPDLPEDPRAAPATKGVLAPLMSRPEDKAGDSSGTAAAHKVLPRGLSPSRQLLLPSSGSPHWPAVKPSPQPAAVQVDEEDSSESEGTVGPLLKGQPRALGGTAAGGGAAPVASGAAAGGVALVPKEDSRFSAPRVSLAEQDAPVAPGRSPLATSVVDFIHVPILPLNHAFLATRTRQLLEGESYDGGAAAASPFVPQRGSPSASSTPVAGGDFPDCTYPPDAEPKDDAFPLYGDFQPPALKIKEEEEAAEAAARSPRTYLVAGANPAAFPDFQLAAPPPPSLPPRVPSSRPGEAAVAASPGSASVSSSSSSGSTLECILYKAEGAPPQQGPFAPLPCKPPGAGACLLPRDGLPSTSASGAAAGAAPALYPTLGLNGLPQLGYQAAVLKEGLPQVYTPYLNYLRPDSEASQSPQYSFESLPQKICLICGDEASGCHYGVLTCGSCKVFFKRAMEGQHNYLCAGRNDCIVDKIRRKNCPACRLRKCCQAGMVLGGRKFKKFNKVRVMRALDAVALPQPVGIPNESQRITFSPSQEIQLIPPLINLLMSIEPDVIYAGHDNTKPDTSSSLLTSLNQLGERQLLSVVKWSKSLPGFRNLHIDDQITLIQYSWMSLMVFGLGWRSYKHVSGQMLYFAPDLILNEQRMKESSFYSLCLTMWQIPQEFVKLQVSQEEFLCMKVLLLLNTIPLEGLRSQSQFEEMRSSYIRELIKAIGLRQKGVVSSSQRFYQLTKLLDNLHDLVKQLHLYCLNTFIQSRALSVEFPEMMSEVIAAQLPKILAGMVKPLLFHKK
Method: The first test was on the progesterone receptors of rabbit uterus in which immature rabbits weighing about 1 kg received a cutaneous application of […] of estradiol and 5 days after treatment, the animals were sacrificed. The […] was removed, weighed and homogenized at 0° C. with a Potter Teflon-glass ina buffered solution. TS (Tris 10 mM, 0.25M Saccharose, HCl, pH 7.4) (1 g of tissue per 50 ml of TS). The homogenate was ultracentrifuged at 105,000 g×90 minutes at 0° C. The surnageant samples were incubated at a time at (t) 0° C. with a constant concentration (T) of tritiated product (R) which is 17,21-dimethyl-19-nor-Δ^4,9 -pregnadiene-3,20-dione in the presence of increasing concentrations from 0 to 2500×10^-9 M or cold R or cold progestenone or cold test compound. The concentration of bound tritiated R was measured for each incubate by absorption technique on dextran carbon.
as §1, §2, §3

Row | Structure (SMILES) | IC50 [1] | relative affinity of the bond (ARL), Glucocorticoid, 2H [2] | relative affinity of the bond (ARL), Glucocorticoid, 24H [2] | relative affinity of the bond (ARL), Progestogen, 2H [3] | relative affinity of the bond (ARL), Progestogen, 24H [3]
1 | CN(C)c1ccc([C@H]2C[C@@]3(C)[C@@H](CC[C@@]3(O)c3ccc(O)cc3)[C@@H]3CCC4=CC(=O)CCC4=C32)cc1 [6 Product A] | 50 nM |  |  |  | 
2 | CN(C)c1ccc([C@H]2C[C@]3(C)C(c4ccc(O)cc4)=CC[C@H]3[C@@H]3CCC4=CC(=O)CCC4=C32)cc1 [6 Product B] | 50 nM |  |  |  | 
3 | CN(C)c1ccc(C2=CC[C@H]3[C@@H]4CCC5=CC(=O)CCC5=C4[C@@H](c4ccc(N(C)C)cc4)C[C@]23C)cc1 [Example 3, 11β,17-bis-(4-dimethylamino-phenyl)-Δ^4,9,16-estratriene-3-one] | 800 nM |  |  |  | 
4 | COc1ccc(C2=CC[C@H]3[C@@H]4CCC5=CC(=O)CCC5=C4[C@@H](c4ccc(N(C)C)cc4)C[C@]23C)cc1 [Example 5, 11β-(4-dimethylamino-phenyl)-17-(4-methoxy-phenyl)-Δ^4,9,16-estratriene-3-one] | 1000 nM |  |  |  | 
5 | CN(C)c1ccc([C@H]2C[C@@]3(C)[C@@H](CC[C@@]3(O)c3cccc(O)c3)[C@@H]3CCC4=CC(=O)CCC4=C32)cc1 [Example 13 (Product A), 11β-(4-dimethylamino-phenyl)-17α-(3-hydroxy-phenyl)-Δ^4,9-estradiene-17β-ol-3-one] |  | 153 | 145 | 34 | 122
6 | CN(C)c1ccc([C@H]2C[C@@]3(C)[C@@H](CC[C@]3(O)c3cccc(O)c3)[C@@H]3CCC4=CC(=O)CCC4=C32)cc1 [Example 13 (Product B), 11β-(4-dimethylaminophenyl)-17β-(3-hydroxy-phenyl)-Δ^4,9-estradiene-17α-ol-3-one] |  | 76 | 63 | 1,9 | 1,7
7 | CN(C)c1ccc([C@H]2C[C@@]3(C)[C@@H](CC[C@@]3(O)c3ccccc3)[C@@H]3CCc4cc(O)ccc4[C@H]32)cc1 [Example 14, 11β-(4-dimethylamino-phenyl)-17α-phenyl-Δ^1,3,5(10) -estratriene-3,17β-diol] |  | 98 | 129 | 5 | 67
